In ChEMBL document CHEMBL1201862, “PubChem BioAssay data set” (2004):
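1) Cells in 96-well plates. 2) Compound, 48 h, 5 concentrations. 3) Linear interpolation between surrounding doses. 4) Unreached endpoint = highest concentration. At the GI50, growth is halved.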 Active and inactive are the calls of the source. Cut-off read from the data, not from the text of the source: active = GI50 up to about 1.1 µM and inactive = higher.

Tests used:
Experiment in all cases: growth of human tumour cells (NCI), 48 h
786-0 = test system: 786-0
A498 = test system: A498
A549 = test system: A549
ACHN = test system: ACHN
BT-549 = test system: BT-549
CAKI-1 = test system: CAKI-1
CCRF-CEM = test system: CCRF-CEM
COLO 205 = test system: COLO 205
DU-145 = test system: DU-145
EKVX = test system: EKVX
HCT-116 = test system: HCT-116
HCT-15 = test system: HCT-15
HL-60 = test system: HL-60
HOP-62 = test system: HOP-62
HOP-92 = test system: HOP-92
HT-29 = test system: HT-29
IGROV-1 = test system: IGROV-1
K562 = test system: K562
KM12 = test system: KM12
LOX IMVI = test system: LOX IMVI
M14 = test system: M14
MCF7 = test system: MCF7
MDA-MB-231 = test system: MDA-MB-231
MDA-MB-435 = test system: MDA-MB-435
MDA-N = test system: MDA-N
MOLT-4 = test system: MOLT-4
NCI-H226 = test system: NCI-H226
NCI-H23 = test system: NCI-H23
NCI-H460 = test system: NCI-H460
NCI/ADR-RES = test system: NCI/ADR-RES
OVCAR-3 = test system: OVCAR-3
OVCAR-4 = test system: OVCAR-4
OVCAR-5 = test system: OVCAR-5
OVCAR-8 = test system: OVCAR-8
PC-3 = test system: PC-3
RPMI-8226 = test system: RPMI-8226
RXF 393 = test system: RXF 393
SF-295 = test system: SF-295
SF-539 = test system: SF-539
SK-MEL-28 = test system: SK-MEL-28
SK-MEL-2 = test system: SK-MEL-2
SK-MEL-5 = test system: SK-MEL-5
SK-OV-3 = test system: SK-OV-3
SN12C = test system: SN12C
SNB-19 = test system: SNB-19
SNB-75 = test system: SNB-75
SR = test system: SR
SW-620 = test system: SW-620
T47D = test system: T47D
TK-10 = test system: TK-10
U-251 = test system: U-251
UACC-257 = test system: UACC-257
UACC-62 = test system: UACC-62
HCC 2998 = test system: HCC 2998
Malme-3M = test system: Malme-3M
NCI-H522 = test system: NCI-H522
SF-268 = test system: SF-268
UO-31 = test system: UO-31

Measured: GI50

O=S(=O)(O)c1cc(/N=N/c2cccc3ccccc23)c(O)c2ncccc12
inactive: 786-0 38.7 µM | A498 31.8 µM | A549 35.4 µM | ACHN 44 µM | BT-549 > 100 µM | CAKI-1 > 100 µM | CCRF-CEM 24.7 µM | COLO 205 33.4 µM | DU-145 > 100 µM | EKVX 30.5 µM | HCT-116 34.9 µM | HL-60 37.8 µM | HOP-62 > 100 µM | HOP-92 > 100 µM | HT-29 24.8 µM | IGROV-1 29.3 µM | K562 32.1 µM | KM12 80.2 µM | LOX IMVI 60.8 µM | M14 47.8 µM | MCF7 23.7 µM | MDA-MB-231 > 100 µM | MDA-MB-435 > 100 µM | MDA-N 58.3 µM | MOLT-4 26.9 µM | NCI-H226 16 µM | NCI-H23 38.9 µM | NCI-H460 25.4 µM | NCI/ADR-RES 65.2 µM | OVCAR-3 22.5 µM | OVCAR-4 46 µM | OVCAR-5 72.8 µM | OVCAR-8 > 100 µM | PC-3 55.6 µM | RPMI-8226 41.2 µM | RXF 393 62.8 µM | SF-295 > 100 µM | SF-539 56.1 µM | SK-MEL-28 > 100 µM | SK-MEL-2 82 µM | SK-MEL-5 31.1 µM | SK-OV-3 > 100 µM | SN12C 60 µM | SNB-19 > 100 µM | SNB-75 60.3 µM | SR 23.2 µM | SW-620 59.8 µM | T47D 55.7 µM | TK-10 > 100 µM | U-251 42 µM | UACC-257 64.4 µM | UACC-62 36.2 µM
47.2 µM: HCT-15

CN1C(=O)[C@](C)(Cc2ccc(F)cc2)N(C(=O)OC(C)(C)C)[C@@H]1C(C)(C)C
inactive: 786-0 29.3 µM | A498 23.4 µM | A549 42.4 µM | ACHN 37.7 µM | BT-549 34.4 µM | CAKI-1 36.4 µM | CCRF-CEM 40.9 µM | COLO 205 19.5 µM | DU-145 42.3 µM | EKVX 47.1 µM | HCC 2998 24.3 µM | HCT-116 30 µM | HL-60 11.4 µM | HOP-62 40.7 µM | HOP-92 30.7 µM | HT-29 22.1 µM | IGROV-1 43.9 µM | K562 25.6 µM | KM12 30.5 µM | LOX IMVI 21.6 µM | M14 41.6 µM | MCF7 22.8 µM | MDA-MB-231 38.1 µM | MDA-MB-435 39.3 µM | MDA-N 37.4 µM | MOLT-4 17.9 µM | Malme-3M > 100 µM | NCI-H226 23.6 µM | NCI-H23 33.1 µM | NCI-H460 31.5 µM | NCI-H522 23.1 µM | NCI/ADR-RES 20.4 µM | OVCAR-3 31.5 µM | OVCAR-4 43.1 µM | OVCAR-5 > 100 µM | OVCAR-8 28.8 µM | PC-3 30.5 µM | RPMI-8226 22.4 µM | RXF 393 21.3 µM | SF-268 55.3 µM | SF-295 20.3 µM | SF-539 41.2 µM | SK-MEL-28 55.3 µM | SK-MEL-2 31.3 µM | SK-MEL-5 19.6 µM | SK-OV-3 43.9 µM | SN12C 17.9 µM | SNB-19 > 100 µM | SNB-75 29.2 µM | SR 21.2 µM | SW-620 37.3 µM | T47D 26.7 µM | TK-10 80.9 µM | U-251 29.6 µM | UACC-257 30.5 µM | UACC-62 32 µM | UO-31 33.6 µM
37.8 µM: HCT-15
